Tests used:
hyperuricaemic mice = experiment: Hyperuricaemic (potassium oxonate) mice: serum and urinary uric acid, urinary creatinine; assay type: in vivo, mouse
Experimental: A total of 45 C57/Black 6 mice in 9 groups (n=5) were studied for a period of one week. The drugs were dissolved or dispersed in distilled water immediately prior to dosing and administered in a volume of 15 mL/kg by gastric gavage. The volume of drug administered was based on the body weight determined on the day of dosing. […] Whole blood and urine samples were collected 1 h after final drug administration on the seventh day. […] The serum and urine were stored at −80° C. until assayed. The uric acid levels in serum and urine were determined by the phosphotungstic acid method.^54 The creatinine levels in serum were determined spectrophotometrically using standard diagnostic kits.

[1] = test system: mouse peritoneal macrophages; experiment: MSU crystal-induced cytokine release from mouse peritoneal macrophages
Experimental: Male C57/BL/6 mice were injected intraperitoneally with 4% thioglycollate solution and the macrophages collected by peritoneal lavage 3 days later.^57 The cells were plated at a density of 7×10^5 cells in 12-well dishes and non-adherent cells were removed after 3 hours. The cells were cultured in RPMI containing 10% FCS, sodium pyruvate, penicillin/streptomycin and L-glutamine. […] The concentration of IL-1β in the supernatant was determined with an R&D systems Quantikine mouse immunoassay.

[2] = test system: subjects with acute gout flares; experiment: Open-label, active-controlled clinical trial in acute gout flares; conditions: for proportion of subjects with ≧50% reduction in target joint pain score from baseline at 72 hours post-dose: PI-NRS
Experimental: The primary efficacy endpoint is the proportion of patients who responded to treatment. Treatment responders are defined as a ≧50% reduction in target joint pain score from baseline at 72 hours post-dose without using rescue drug. The target joint pain score is an 11-point Pain Intensity Numeric Rating Scale (PI-NRS) used to assess joint pain intensity while experiencing a gout flare on a scale from 0 (no pain) to 10 (worst possible pain).

THP-1 cells = THP-1 cells stimulated with lipopolysaccharide; cited from earlier work
Male C57/BL/6 mice = experiment: Monosodium urate crystal-induced peritoneal inflammation in mice; assay type: in vivo, mouse; conditions: for decrease of mean neutrophil influx for every increase of 1 μmol/kg of the drug: single drug i.p., MSU crystals 0.5 mg i.p., logarithmic model
Experimental: Colchicine was dissolved in PBS and administered at a dose of 0.05, 0.5 and 5 μmol/kg in a similar fashion. […] The mice were euthanised after 6 hours with CO2 and the peritoneal cells removed by lavage with 10 mL of cold PBS. The lavage fluid was analysed for neutrophil infiltration using a cytospin and Diff-Quick staining. The concentrations of IL-1β and IL-6 in the lavage supernatants was determined using an R&D Systems Quantikine mouse immunoassay.

patients = conditions: febuxostat 80 mg/day; cited from earlier work

For Oc1ncnc2[nH]ncc12 [allopurinol], the “effect on serum urate” value (hyperuricaemic mice; allopurinol 5 mg/kg/day, 7 days, to a level below normal baseline) was “highly significant (p<0.001) drop in serum urate” and the “effect on urinary uric acid” value (hyperuricaemic mice; allopurinol 5 mg/kg/day, level still below normal baseline) was “highly significant (p<0.001) increase in urinary uric acid”.

For CC(C)(S)C(=O)N[C@@H](CS)C(=O)O [bucillamine, N-(2-mercapto-2-methylpropionyl)-L-cysteine], the “decrease in average IL-1β cytokine production with each additional 1 μmol/kg increase” value ([1]; MSU crystals 50 μg/mL, 6 hours) was 30.7 pg/mL, the “decrease in average IL-6 cytokine production with each additional 1 μmol/kg increase” value ([1]; MSU crystals 50 μg/mL, 6 hours) was 13.7 pg/mL and the “decrease in average MSU crystal-induced IL-1β production” value ([1]; addition of bucillamine 10 μmol/kg to colchicine) was 65.0%. The “proportion of subjects with ≧50% reduction in target joint pain score from baseline at 72 hours post-dose” value ([2]; Arm A, 900 mg, 2/8 subjects) was 25%, the “proportion of subjects with ≧50% reduction in target joint pain score from baseline at 72 hours post-dose” value ([2]; Arm B, 1,800 mg, 6/9 subjects) was 67% and the “use of rescue medication” value ([2]; Arm B, 1,800 mg, all subjects, seven-day treatment period) was “completed the treatment period without the use of rescue medication”. The “release of TNF-α, IL-1β and IL-8” value (THP-1 cells) was “attenuated”, the “release of IL-1β and IL-6 into the peritoneal cavity” value (Male C57/BL/6 mice; after injection of monosodium urate crystals, mouse) was “attenuated” and the “effect of addition of bucillamine on average neutrophil influx” value (Male C57/BL/6 mice; bucillamine 10 μmol/kg added to colchicine, MSU crystals i.p., 6 hours) was “highly significant (p<0.001) decrease in average neutrophil influx”. The “decrease of mean neutrophil influx for every increase of 1 μmol/kg of the drug” value (Male C57/BL/6 mice; 6 hours) was 5.15%, the “increase of mean urinary uric acid for each increase of 1 mg/kg/day” value (hyperuricaemic mice; bucillamine alone, 7 days, dose-response slope) was 0.079 mg/dL and the “reduction of mean serum urate for each increase of 1 mg/kg/day” value (hyperuricaemic mice; bucillamine alone, gastric gavage, 7 days, dose-response slope) was 0.0067 mg/dL.

In the case of COc1cc2c(c(OC)c1OC)-c1ccc(OC)c(=O)cc1[C@@H](NC(C)=O)CC2 [colchicine], the “decrease of average MSU crystal-induced IL-1β production for every increase of 1 μmol/kg” value ([1]; colchicine alone, logarithmic model) was 29.6%, the “proportion of subjects with ≧50% reduction in target joint pain score from baseline at 72 hours post-dose” value ([2]; Arm C, 1.8 mg, 5/12 subjects) was 42% and the “related serious adverse events” value ([2]; any of the treatment arms, seven-day treatment period) was “No related serious adverse events”. For the same compound, the “decrease of mean neutrophil influx for every increase of 1 μmol/kg of the drug” value (Male C57/BL/6 mice; 6 hours) was 18.3%.

In the case of Cc1nc(-c2ccc(OCC(C)C)c(C#N)c2)sc1C(=O)O [febuxostat], the “patients who previously failed to normalise uric acid levels (<360 μmol/L) on allopurinol and also failed” value (patients) is given as 59%.
